Test results: patent US11299538B2, “Anti-IGF antibodies” (Boehringer Ingelheim International GmbH, priority 2008, dated 2022)

System: SK-ES-1 cells
Assay: Ewing's sarcoma-derived cell line growth assay, combination with rapamycin
Type: cell-based
Details: Homo sapiens, SK-ES1, 100 nM (each agent), FIG. 8, read-out: proliferation inhibition
Method: The typical concentrations used are 30, 10, 3.3, 1.1, 0.37, and 0.12 μg/ml (or 100, 10, 1, 0.1, 0.01, 0.001 nM rapamycin and test antibody for combination studies) and each dilution is performed in triplicate wells. The cells plus antibody are then incubated for 120 hours after which time the relative cell number in each well is determined using the CellTiter-Glo luminescent cell viability assay (Promega). Luminescence (LU=Luminescence Units) is recorded using a XFluor GENios Pro 4 and for data analysis the mean value from triplicate wells is taken and fitted by iterative calculations using a sigmoidal curve analysis program (Graph Pad Prism) with variable Hill slope.

CO[C@H]1C[C@@H]2CC[C@@H](C)[C@@](O)(O2)C(=O)C(=O)N2CCCC[C@H]2C(=O)O[C@H]([C@H](C)C[C@@H]2CC[C@@H](O)[C@H](OC)C2)CC(=O)[C@H](C)/C=C(\C)[C@@H](O)[C@@H](OC)C(=O)[C@H](C)C[C@H](C)/C=C/C=C/C=C/1C [rapamycin, reference compound]
inhibition at 0.1 µM: ~60%
